Literature values as cited in US20250127746A1, “TOPICAL CONTACT SENSITIZERS TO TREAT CANCER” (Squarex Pharmaceutical Corporation, priority 2023, published 2025).
“Also recorded” adds a separate entry of the source.

Tests used:
common warts = conditions: Candida injected, SADBE applied topically
[1] = system: herpes labialis outbreaks
[2] = system: PBMCs stimulated with HSV-1
[3] = prevention of cold sore episodes

For `CCCCOc1c(OCCCC)c(=O)c1=O` [SADBE, 3,4-Dibutoxy-3-cyclobutene-1,2-dione], the “efficacy to treat common warts” value (common warts) is listed as “effective in treating warts; also recorded: effective to treat common warts”, the “time after which efficacy begins to wane” value [1, 3] is listed as 3 to 4 months and the “time for a dose to take effect” value [1, 3] is listed as 2 to 8 weeks. For the same compound, the “number of oral herpes (herpes labialis) outbreaks” value ([1]; topical application to the arm) was “effective in preventing (reducing the number of) herpes labialis episodes; also recorded: reduce frequency of herpes labialis outbreaks; also recorded: prevent and reduce the number of oral herpes outbreaks”, the “expression of interferon gamma (IFNG) by isolated PBMCs exposed to HSV” value ([2]; 8 weeks after a topical application to the arm) was “increased” and the “PBMC proliferation and immune gene expression profile versus subjects with infrequent or zero outbreaks” value ([2]; 56 days after a single topical dose, versus day 1) was “more like those of the subjects with infrequent or zero outbreaks”. The “change of immune response type” value ([2]; single dose, against both herpes simplex virus and Candida extract) was “from a type 2 immune response to a type 1 immune response”.
